Data as given in article PMC9315260, “Diarylamine-Guided Carboxamide Derivatives: Synthesis, Biological Evaluation, and Potential Mechanism of Action” (Frontiers in Chemistry, 2022).

How the values were obtained:
[1] = test system: SGC-7901 (human gastric cancer cell line); test: MTT in vitro cytotoxicity assay, SGC-7901; assay type: cell-based; conditions: for IC50: SGC-7901, Table 3, MTT, mean ± S.D.; for inhibition at 100 µM: SGC-7901, at 100 µM, read-out: Cell growth inhibition (%) SGC-7901
Method: (§1) The lead molecules A2 and all newly prepared diarylamine derivatives B1-13 and C1-11 were evaluated for their in vitro cytotoxic effects against SGC-7901, A875, HepG2 and MARC145 cell lines by the classical MTT [3-(4,5-dimethylthiazol-2-yl)-2,5-diphenyl tetrazolium bromide] assay ([Alley et al., 1988]; [Ke et al., 2012]; [Shi et al., 2012]; [Yu et al., 2015]; [Ke et al., 2019]; [Xu et al., 2019]; [Huang et al., 2021]) using 5-FU (5-Fluorouracil) as a control.
(§2) The cytotoxicity of target compounds was determined with MTT assay ([Alley et al., 1988]; [Ke et al., 2012]; [Shi et al., 2012]; [Yu et al., 2015]; [Ke et al., 2019]; [Xu et al., 2019]; [Huang et al., 2021]). SGC-7901, A875, HepG2 and MARC145 cell lines were obtained from Hubei Biopesticide Engineering Research Centre. All data of the experiment were analyzed with SPSS software, and all assay were performed in triplicate on three independent experiments, and measurement data were expressed as the mean ± S.D.
(§3) The in vitro cytotoxicity of the synthesized compounds against different cell lines (SGC-7901, A875, HepG2 and MARC145) was measured with MTT assay. All the data of the experiment were analyzed with SPSS software, and the 50% inhibitory concentrations (IC50) of each compound for the different cell lines were determined. A control was run for each test, and all assays were performed in triplicate on three independent experiments, and measurement data were expressed as the mean ± S.D.

[2] = test system: HepG2 (human hepatocellular liver carcinoma cell line); test: MTT in vitro cytotoxicity assay, HepG2; assay type: cell-based; conditions: for IC50: HepG2, Table 3, MTT, mean ± S.D.; for inhibition at 100 µM: HepG2, at 100 µM, read-out: Cell growth inhibition (%) HepG2
Method: as §1, §2, §3

[3] = MTT in vitro cytotoxicity assay, MARC145; assay type: cell-based, African green monkey; conditions: African green monkey, MARC145 cells (kidney cell line, subclone of MA-104), Table 3; MTT; mean ± S.D.
Method: as §1, §2, §3

[4] = test system: MARC145 (subclone of African green monkey kidney cell line MA-104); test: MTT in vitro cytotoxicity assay, MARC145; assay type: cell-based; conditions: at 100 µM; for inhibition at 100 µM: Chlorocebus sabaeus, MARC145, read-out: Cell growth inhibition (%) MARC145
Method: as §1, §2, §3

[5] = test system: A875 cells; test: LDH release (cellular necrosis); assay type: cell-based, human; conditions: 24 h after treatment
Method: From the preliminary analysis of apoptosis, the results encourage us to further investigate the type of cell death induced by the potential compounds (C6 and C11). As we know, the release of LDH is a typical characteristic feature of necrotic cell death, and so which was detected.
A875 cells grown in 96-well plates were treated with serial dilutions of each tested compound for 24 h. The culture media were collected, and the concentrations of LDH were determined based on our previous research ([Huang et al., 2021]).
A875 cells grown in 96-well plates were treated with serial dilutions of each tested compound for 24 h. The culture media were collected, and the concentrations of LDH were determined with an LDH assay kit according to the manufacturer’s instructions (Abcam).

[6] = target: AKT1 (Homo sapiens, UniProt P31749); test: ADP-GLO kinase inhibitory assay, AKT1; assay type: biochemical
Method: (§4) Based on the aforementioned results for the potential mechanism of action, the kinase inhibitory profile of compounds C6 and C11 were screened at two dose concentration of 10 and 1 µM over a panel of 15 kinases, and the kinase inhibitory activities are listed in supporting information (Supplementary Table S1).
(§5) The kinase inhibitory profile of compounds C6 and C11 were screened at two dose concentration of 10 and 1 µM over a panel of 15 kinases, and each assay was repeated twice. All the inhibitory assays were carried out through kinase profiling services provided by HY Biotech (Chinese), in which ADP-GLO kinase assays were used.
(§6) The kinase inhibitory profile of compounds C6 and C11 were screened at two dose concentration of 10 µM and 1 µM over a panel of 15 kinases, and each assay was repeated twice. All the inhibitory assays were carried out through kinase profiling services provided by HY Biotech (Chinese), in which ADP-GLO kinase assays were used.

[7] = target: T1, CHK1 (Homo sapiens, UniProt O14757); test: ADP-GLO kinase inhibitory assay, CHK1; assay type: biochemical
T1 sequence (O14757 1-476): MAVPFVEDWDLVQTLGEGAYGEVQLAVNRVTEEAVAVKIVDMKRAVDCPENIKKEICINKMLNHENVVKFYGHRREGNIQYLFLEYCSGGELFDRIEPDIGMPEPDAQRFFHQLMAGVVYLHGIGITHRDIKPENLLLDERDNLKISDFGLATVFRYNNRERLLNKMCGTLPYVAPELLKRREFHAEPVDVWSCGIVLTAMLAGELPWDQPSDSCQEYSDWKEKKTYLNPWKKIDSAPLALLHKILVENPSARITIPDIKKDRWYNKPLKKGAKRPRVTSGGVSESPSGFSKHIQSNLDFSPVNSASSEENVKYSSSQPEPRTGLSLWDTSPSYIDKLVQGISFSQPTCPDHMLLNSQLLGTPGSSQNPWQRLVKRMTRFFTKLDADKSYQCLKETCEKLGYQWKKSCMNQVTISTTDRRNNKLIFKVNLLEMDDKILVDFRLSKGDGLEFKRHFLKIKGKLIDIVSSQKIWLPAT
Method: as §4, §5, §6

[8] = target: DAPK1 (Homo sapiens, UniProt P53355); test: ADP-GLO kinase inhibitory assay, DAPK1; assay type: biochemical
Method: as §4, §5, §6

[9] = target: CDK1/A2 (Homo sapiens, UniProt P06493); test: ADP-GLO kinase inhibitory assay, CDK1/A2; assay type: biochemical
Method: as §4, §5, §6

[10] = target: MAPK1 (Homo sapiens, UniProt P28482); test: ADP-GLO kinase inhibitory assay, MAPK1; assay type: biochemical; conditions: for inhibition of MAPK1, in words: at 1 μM
Method: as §4, §5, §6

[11] = target: CDK2/A2 (Homo sapiens, UniProt P24941); test: ADP-GLO kinase inhibitory assay, CDK2/A2; assay type: biochemical; conditions: for inhibition of CDK2/A2, in words: at 1 μM
Method: as §4, §5, §6

[12] = target: ERK1 (Homo sapiens, UniProt P27361); test: ADP-GLO kinase inhibitory assay, ERK1; assay type: biochemical
Method: as §4, §5, §6

[13] = target: PAK3 (Homo sapiens, UniProt O75914); test: ADP-GLO kinase inhibitory assay, PAK3; assay type: biochemical
Method: as §4, §5, §6

[14] = target: PLK1 (Homo sapiens, UniProt P53350); test: ADP-GLO kinase inhibitory assay, PLK1; assay type: biochemical
Method: as §4, §5, §6

Sequence of AKT1 (P31749 whole entry, species assumed): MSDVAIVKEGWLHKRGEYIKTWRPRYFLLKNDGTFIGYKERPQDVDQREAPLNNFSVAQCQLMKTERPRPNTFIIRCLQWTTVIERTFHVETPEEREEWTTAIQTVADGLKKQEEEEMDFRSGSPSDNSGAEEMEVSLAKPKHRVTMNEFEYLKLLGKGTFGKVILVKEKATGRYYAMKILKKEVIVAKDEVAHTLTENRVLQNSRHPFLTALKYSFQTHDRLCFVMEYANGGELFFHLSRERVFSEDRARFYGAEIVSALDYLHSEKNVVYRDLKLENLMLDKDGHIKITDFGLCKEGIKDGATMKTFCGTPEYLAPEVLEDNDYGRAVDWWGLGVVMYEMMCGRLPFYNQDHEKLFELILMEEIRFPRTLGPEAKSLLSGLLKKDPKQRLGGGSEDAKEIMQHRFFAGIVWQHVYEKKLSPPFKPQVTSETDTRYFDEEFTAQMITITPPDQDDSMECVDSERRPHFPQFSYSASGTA
Sequence of ERK1 (P27361 whole entry, species assumed): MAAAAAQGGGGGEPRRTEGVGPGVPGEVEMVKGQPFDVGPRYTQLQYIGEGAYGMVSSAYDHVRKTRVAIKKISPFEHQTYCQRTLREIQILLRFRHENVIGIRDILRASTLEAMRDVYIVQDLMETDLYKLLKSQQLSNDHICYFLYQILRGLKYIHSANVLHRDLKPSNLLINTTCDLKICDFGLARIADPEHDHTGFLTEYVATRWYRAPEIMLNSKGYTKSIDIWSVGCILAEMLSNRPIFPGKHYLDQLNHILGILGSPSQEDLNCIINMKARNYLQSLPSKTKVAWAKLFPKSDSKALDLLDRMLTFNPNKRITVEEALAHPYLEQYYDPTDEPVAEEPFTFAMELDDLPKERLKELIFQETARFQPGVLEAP
Sequence of MAPK1 (P28482 whole entry, species assumed): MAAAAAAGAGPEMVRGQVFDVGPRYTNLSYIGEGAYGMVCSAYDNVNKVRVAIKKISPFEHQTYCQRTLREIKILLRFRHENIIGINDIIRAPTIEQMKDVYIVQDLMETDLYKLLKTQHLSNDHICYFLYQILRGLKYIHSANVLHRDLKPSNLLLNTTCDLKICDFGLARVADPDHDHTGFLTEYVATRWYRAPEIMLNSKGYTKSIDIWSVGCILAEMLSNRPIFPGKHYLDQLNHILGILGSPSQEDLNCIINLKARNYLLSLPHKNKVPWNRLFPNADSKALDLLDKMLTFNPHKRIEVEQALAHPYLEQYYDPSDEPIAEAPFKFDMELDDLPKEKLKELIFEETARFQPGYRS
Sequence of PLK1 (P53350 whole entry, species assumed): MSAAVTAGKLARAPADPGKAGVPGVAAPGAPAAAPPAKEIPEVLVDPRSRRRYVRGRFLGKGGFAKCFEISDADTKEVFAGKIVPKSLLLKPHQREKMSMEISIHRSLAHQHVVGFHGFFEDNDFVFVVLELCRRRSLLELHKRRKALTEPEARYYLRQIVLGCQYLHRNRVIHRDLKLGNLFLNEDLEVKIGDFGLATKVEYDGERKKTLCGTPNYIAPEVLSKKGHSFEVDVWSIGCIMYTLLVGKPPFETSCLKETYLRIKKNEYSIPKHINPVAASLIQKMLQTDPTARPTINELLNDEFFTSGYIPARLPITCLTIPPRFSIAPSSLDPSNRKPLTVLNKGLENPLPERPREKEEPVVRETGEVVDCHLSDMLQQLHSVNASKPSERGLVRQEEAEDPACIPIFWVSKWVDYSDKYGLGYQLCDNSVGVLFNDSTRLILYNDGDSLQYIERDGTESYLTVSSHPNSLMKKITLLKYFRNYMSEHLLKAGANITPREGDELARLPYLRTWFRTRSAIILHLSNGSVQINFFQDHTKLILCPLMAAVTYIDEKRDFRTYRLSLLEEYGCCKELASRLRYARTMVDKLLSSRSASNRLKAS
Sequence of PAK3 (O75914 whole entry, species assumed): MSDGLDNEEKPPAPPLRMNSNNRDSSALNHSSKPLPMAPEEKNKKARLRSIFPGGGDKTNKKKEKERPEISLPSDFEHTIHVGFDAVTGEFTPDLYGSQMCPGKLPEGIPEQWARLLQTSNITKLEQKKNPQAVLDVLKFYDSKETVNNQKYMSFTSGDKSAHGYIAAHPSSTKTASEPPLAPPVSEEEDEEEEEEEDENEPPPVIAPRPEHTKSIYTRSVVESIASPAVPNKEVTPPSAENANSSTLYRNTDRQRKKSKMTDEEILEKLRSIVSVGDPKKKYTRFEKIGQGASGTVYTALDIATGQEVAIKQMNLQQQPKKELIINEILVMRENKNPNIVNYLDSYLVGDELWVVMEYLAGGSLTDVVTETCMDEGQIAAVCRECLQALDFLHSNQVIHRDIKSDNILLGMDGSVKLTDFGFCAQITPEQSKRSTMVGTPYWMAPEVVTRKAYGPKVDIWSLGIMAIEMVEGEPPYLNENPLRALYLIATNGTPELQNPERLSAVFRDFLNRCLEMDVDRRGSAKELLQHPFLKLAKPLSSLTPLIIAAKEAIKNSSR
Sequence of DAPK1 (P53355 whole entry, species assumed): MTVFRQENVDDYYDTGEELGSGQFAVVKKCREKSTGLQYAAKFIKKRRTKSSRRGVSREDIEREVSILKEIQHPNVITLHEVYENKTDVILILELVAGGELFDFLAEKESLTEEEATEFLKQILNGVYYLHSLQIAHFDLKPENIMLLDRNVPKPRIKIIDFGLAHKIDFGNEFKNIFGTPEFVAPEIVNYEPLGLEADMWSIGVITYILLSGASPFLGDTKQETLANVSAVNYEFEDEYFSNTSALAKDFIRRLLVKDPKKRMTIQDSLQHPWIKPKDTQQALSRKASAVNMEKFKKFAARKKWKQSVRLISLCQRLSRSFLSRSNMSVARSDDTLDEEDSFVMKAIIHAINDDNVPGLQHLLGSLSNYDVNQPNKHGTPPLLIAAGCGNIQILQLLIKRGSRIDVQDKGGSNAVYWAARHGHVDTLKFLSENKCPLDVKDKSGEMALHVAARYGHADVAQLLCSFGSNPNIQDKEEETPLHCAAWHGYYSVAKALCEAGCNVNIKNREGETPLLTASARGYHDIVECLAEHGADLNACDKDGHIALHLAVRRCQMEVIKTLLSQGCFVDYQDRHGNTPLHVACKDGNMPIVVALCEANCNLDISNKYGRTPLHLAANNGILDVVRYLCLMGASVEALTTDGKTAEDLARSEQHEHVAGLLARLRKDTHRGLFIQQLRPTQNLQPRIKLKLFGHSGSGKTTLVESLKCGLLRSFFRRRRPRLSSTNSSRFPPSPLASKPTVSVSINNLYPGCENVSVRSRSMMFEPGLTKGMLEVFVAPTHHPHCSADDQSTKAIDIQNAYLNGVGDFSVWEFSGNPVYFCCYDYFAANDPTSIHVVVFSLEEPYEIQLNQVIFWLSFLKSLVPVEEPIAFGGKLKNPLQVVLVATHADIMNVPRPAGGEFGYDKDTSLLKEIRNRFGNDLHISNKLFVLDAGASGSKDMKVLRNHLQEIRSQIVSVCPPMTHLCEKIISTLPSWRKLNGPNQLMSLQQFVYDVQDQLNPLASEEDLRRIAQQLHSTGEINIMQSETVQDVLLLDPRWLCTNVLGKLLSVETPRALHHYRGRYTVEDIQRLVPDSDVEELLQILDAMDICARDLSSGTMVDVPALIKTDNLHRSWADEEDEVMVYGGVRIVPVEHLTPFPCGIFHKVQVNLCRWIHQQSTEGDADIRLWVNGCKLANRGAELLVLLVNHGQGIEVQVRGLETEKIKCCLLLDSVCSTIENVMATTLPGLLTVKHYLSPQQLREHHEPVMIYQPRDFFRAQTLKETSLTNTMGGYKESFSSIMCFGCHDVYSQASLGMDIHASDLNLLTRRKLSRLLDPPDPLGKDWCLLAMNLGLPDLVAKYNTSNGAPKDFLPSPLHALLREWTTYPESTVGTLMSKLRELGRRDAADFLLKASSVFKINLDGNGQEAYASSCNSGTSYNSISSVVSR

O=C(Nc1cccc(C(F)(F)F)c1)c1cccnc1Nc1cccc(C(F)(F)F)c1 [C6, N-(3-(Trifluoromethyl)phenyl)-2-((3-(trifluoromethyl)phenyl)amino)nicotinamide]
IC50 [1]: 5.53 ± 0.82 µM
inhibition at 100 µM [1]: 90.5 ± 3.8%
IC50 [2]: 9.99 ± 1.58 µM
inhibition at 100 µM [2]: 91.3 ± 3.7%
IC50 [3]: 9.72 ± 2.75 µM
inhibition at 100 µM [4]: 89.8 ± 3.4%
release of LDH, in words [5]: significantly increased
inhibition at 1 µM [6]: 10.4%
inhibition at 10 µM [6]: -6.77%
inhibition at 1 µM [7]: 10.2%
inhibition at 10 µM [7]: -0.18%
inhibition at 1 µM [8]: 8.48%
inhibition at 10 µM [8]: -7.18%
inhibition at 1 µM [9]: 1.55%
inhibition at 10 µM [9]: -3.82%
inhibition at 1 µM [10]: 28.8%
inhibition at 10 µM [10]: 17.6%
inhibition of MAPK1, in words [10]: certain inhibitions
inhibition at 1 µM [11]: 23.4%
inhibition at 10 µM [11]: 15%
inhibition of CDK2/A2, in words [11]: certain inhibitions
inhibition at 1 µM [12]: 6.76%
inhibition at 10 µM [12]: -6.1%
inhibition at 1 µM [13]: 10.1%
inhibition at 10 µM [13]: 1.34%
inhibition at 1 µM [14]: 5.21%
inhibition at 10 µM [14]: -0.95%

O=C(Nc1ccc(Cl)nc1)c1cccnc1Nc1cccc(C(F)(F)F)c1 [C11, N-(6-Chloropyridin-3-yl)-2-((3-(trifluoromethyl)phenyl)amino)nicotinamide]
IC50 [1]: 9.13 ± 3.52 µM
inhibition at 100 µM [1]: 85.6 ± 4.3%
IC50 [2]: 10.2 ± 2.04 µM
inhibition at 100 µM [2]: 85.7 ± 2.4%
IC50 [3]: > 102 µM
inhibition at 100 µM [4]: 27.1 ± 3.6%
inhibition on normal cell lines (MARC145), in words [4]: low inhibition
release of LDH, in words [5]: significantly increased
inhibition at 1 µM [6]: 13.3%
inhibition at 10 µM [6]: -5.21%
inhibition at 1 µM [7]: 19.5%
inhibition at 10 µM [7]: 3.66%
inhibition at 1 µM [8]: -2.25%
inhibition at 10 µM [8]: 6.49%
inhibition at 1 µM [9]: 38.2%
inhibition at 10 µM [9]: -7.23%
inhibition of CDK1/A2, in words ([9]; at 1 μM): some inhibitions
inhibition at 1 µM [10]: 24.4%
inhibition at 10 µM [10]: 7.96%
inhibition of MAPK1, in words [10]: some inhibitions
inhibition at 1 µM [11]: 26.8%
inhibition at 10 µM [11]: 16.7%
inhibition of CDK2/A2, in words [11]: some inhibitions
inhibition at 1 µM [12]: 18.2%
inhibition at 10 µM [12]: 3.07%
inhibition at 1 µM [13]: 11.8%
inhibition at 10 µM [13]: 8.14%
inhibition at 1 µM [14]: 7.32%
inhibition at 10 µM [14]: 2.02%
